Where a name gives a salt, the structure may show the parent alone.
Assays:
Experiment in all cases: biochemical
[1] = target: T1, P. falciparum Rh5 (Rh5 – basigin interaction) (Plasmodium falciparum, UniProt Q8IFM5); parameters: AlphaScreen of Rh5 - His-tagged basigin interaction with anti-Rh5 mAb beads; inhibition of luminescence signal; conditions: primary pilot screen, single point
Method: Using the Combi-multidrop, 5 μL of Rh5 stock solution (200 nM prepared in assay buffer) was added to columns 1–24 of the 384-well assay plate (Greiner 384-well white, low binding plate, #784904, Bioone). The PerkinElmer Janus automated dispensing system was then employed to transfer, via the pin-tool, 2 × 100 nL of the compound stock DMSO solution from the compound master plate to the assay plate. The plate was sealed and incubated for 30 min at room temperature. Using a Combi-multidrop, 5 μL of hexa-histidine tagged basigin stock solution (80 nM prepared in assay buffer) was then added to columns 1–23 and 5 μL assay buffer to column 24 of the 384-well assay plate. The plate was sealed again and incubated for 30 min at room temperature. A solution of AlphaScreen donor and acceptor beads (20 μg/mL prepared in assay buffer) plus anti-Rh5 mAb solution (2 μg/mL prepared in assay buffer) was prepared in assay buffer under subdued lighting. Using the Combi-multidrop, 10 μL of this solution was added to every well of the assay plate under subdued lighting. The plate was sealed with foil (plate max) and incubated at room temperature for 1 h. The assay plate was then analysed on the PerkinElmer Envision 2103 Multilabel Plate Reader (Ex 680, Em 520–620 nm). The optimised Rh5 AlphaScreen assay was then validated for HT screening purposes by conducting a pilot screen using known drug library (from Prestwick, Tocris and LOPAC) and the MMV Malaria Box, comprising 3708 and 400 compounds (Fig. 1), respectively. Historically, PPIs are notoriously difficult to target with small molecules. To enhance the likelihood of identifying an inhibitor of the Rh5 - basigin interaction the primary screen was conducted at a compound concentration of 20 μM. A 20 μM screening concentration is considered high, when compared to the commonly used primary screen concentrations of approximately 1–10 μM. To follow-up on hit compounds from the pilot validation screen, we next wanted to confirm the activity of the primary hits. To do this, a two-phase hit confirmation and counterscreen process was undertaken (Fig. 1). In the first phase, the 231 primary hits from both libraries were evaluated in the Rh5 AlphaScreen assay and counterscreen assay. Both assays were undertaken at 10 μM in duplicate. The counterscreen assay was conducted using AlphaScreen TruHits. […] The 45 secondary hits can be viewed in the top left quadrant of Fig. S8. Of the 45 hits, 13 compounds originated from the Malaria Box and 32 compounds from the known drug library.

[2] = target: T1, P. falciparum Rh5 (Rh5 – basigin interaction); parameters: AlphaScreen of Rh5 - His-tagged basigin interaction with anti-Rh5 mAb beads; inhibition of luminescence signal; conditions: confirmation screen, duplicate
Method: Using the Combi-multidrop, 5 μL of Rh5 stock solution (200 nM prepared in assay buffer) was added to columns 1–24 of the 384-well assay plate (Greiner 384-well white, low binding plate, #784904, Bioone). The PerkinElmer Janus automated dispensing system was then employed to transfer, via the pin-tool, 2 × 100 nL of the compound stock DMSO solution from the compound master plate to the assay plate. The plate was sealed and incubated for 30 min at room temperature. Using a Combi-multidrop, 5 μL of hexa-histidine tagged basigin stock solution (80 nM prepared in assay buffer) was then added to columns 1–23 and 5 μL assay buffer to column 24 of the 384-well assay plate. The plate was sealed again and incubated for 30 min at room temperature. A solution of AlphaScreen donor and acceptor beads (20 μg/mL prepared in assay buffer) plus anti-Rh5 mAb solution (2 μg/mL prepared in assay buffer) was prepared in assay buffer under subdued lighting. Using the Combi-multidrop, 10 μL of this solution was added to every well of the assay plate under subdued lighting. The plate was sealed with foil (plate max) and incubated at room temperature for 1 h. The assay plate was then analysed on the PerkinElmer Envision 2103 Multilabel Plate Reader (Ex 680, Em 520–620 nm). […] Historically, PPIs are notoriously difficult to target with small molecules. To enhance the likelihood of identifying an inhibitor of the Rh5 - basigin interaction the primary screen was conducted at a compound concentration of 20 μM. A 20 μM screening concentration is considered high, when compared to the commonly used primary screen concentrations of approximately 1–10 μM. […] To do this, a two-phase hit confirmation and counterscreen process was undertaken (Fig. 1). […] Both assays were undertaken at 10 μM in duplicate. The counterscreen assay was conducted using AlphaScreen TruHits.

[3] = target: T1, P. falciparum Rh5 (Rh5 – basigin interaction); assay type: binding; conditions: for Rh5 inhibitory activity in the AlphaScreen assay: highest concentration tested 50 μM

T1 sequence (Q8IFM5 24-526): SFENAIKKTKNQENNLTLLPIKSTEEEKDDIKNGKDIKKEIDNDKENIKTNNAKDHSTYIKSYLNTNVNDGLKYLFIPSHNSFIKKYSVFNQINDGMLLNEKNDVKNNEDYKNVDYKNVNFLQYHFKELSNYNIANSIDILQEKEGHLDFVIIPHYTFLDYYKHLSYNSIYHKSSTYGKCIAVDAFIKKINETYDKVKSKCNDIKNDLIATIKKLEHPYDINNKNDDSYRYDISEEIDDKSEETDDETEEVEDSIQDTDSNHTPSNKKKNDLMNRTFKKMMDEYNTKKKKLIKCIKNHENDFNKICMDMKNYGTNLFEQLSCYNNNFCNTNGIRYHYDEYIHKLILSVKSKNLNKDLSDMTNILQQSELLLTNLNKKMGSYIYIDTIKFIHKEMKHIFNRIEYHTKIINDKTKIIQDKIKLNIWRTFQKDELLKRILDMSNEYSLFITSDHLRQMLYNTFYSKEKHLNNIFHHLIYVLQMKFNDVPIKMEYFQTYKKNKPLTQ

Row | Structure (SMILES) | inhibition at 20 µM ([1]; Batch Reference=01) | inhibition at 10 µM ([2]; Batch Reference=01) | Rh5 inhibitory activity in the AlphaScreen assay [3] | further results
1 | NC(Cc1cc(O)c(O)cc1O)C(=O)O (racemic) [WEHI-1215200, 6-Hydroxy-DL-DOPA] | 69.7% | 80.7% |  | 
2 | CC(=O)N1CCN(c2ccc(OC[C@@H]3CO[C@@](Cn4ccnc4)(c4ccc(Cl)cc4Cl)O3)cc2)CC1 (racemic) [WEHI-1215227, Ketoconazole] |  |  |  | inhibition at 20 µM ([1]; Batch Reference=02): 58.3%
3 | CCOC(=O)c1cc(=O)c2cccc(NC(=O)c3ccc(OCc4ccccc4)cc3)c2o1 [Compound 11, Ethyl 8-(4-(benzyloxy)benzamido)-4-oxo-4H-chromene-2-carboxylate] |  |  |  | IC50 [3]: > 50 µM
4 | CCOC(=O)c1cc(=O)c2cccc(NC(=O)c3ccc(OCCc4ccccc4)cc3)c2o1 [Compound 12, Ethyl 4-oxo-8-(4-phenethoxybenzamido)-4H-chromene-2-carboxylate] |  |  |  | IC50 [3]: > 50 µM
5 | CCOC(=O)c1cc(=O)c2cccc(NC(=O)c3ccc(OCCCCc4ccccc4)cc3)c2o1 [Compound 14, Ethyl 4-oxo-8-(4-(4-phenylbutoxy)benzamido)-4H-chromene-2-carboxylate] |  |  |  | IC50 [3]: > 50 µM
6 | O=C(Nc1cccc2c(=O)cc(C(=O)O)oc12)c1ccc(OCc2ccccc2)cc1 [Compound 15, 8-(4-(Benzyloxy)benzamido)-4-oxo-4H-chromene-2-carboxylic acid] |  |  | No activity | IC50 [3]: > 50 µM
7 | CCOC(=O)c1cc(=O)c2cccc(NC(=O)c3ccc(OC)cc3)c2o1 [Compound 20, Ethyl 8-(4-methoxybenzamido)-4-oxo-4H-chromene-2-carboxylate] |  |  |  | IC50 [3]: > 50 µM
8 | CN(C)C(=O)CCSC(SCCC(=O)O)c1cccc(/C=C/c2ccc3ccc(Cl)cc3n2)c1 (centres unmarked) [MK 571, reference compound] |  |  | did not show Rh5 inhibitory activity | 
9 | Br.CN1CCc2cc(O)cc3c2[C@H]1Cc1ccc(O)c(O)c1-3 [R(-)-2,10,11-trihydroxyaporphine, reference compound] |  |  | not active | 
10 | CN1CCc2cccc3c2[C@H]1Cc1ccc(O)c(O)c1-3 [R(-)-apomorphine, reference compound] |  |  | not active | 
11 | CCCN1CCc2cccc3c2[C@H]1Cc1ccc(O)c(O)c1-3 [R(-)-propylnorapomorphine, reference compound] |  |  | not active | 
12 | COC(=O)C1=C(C)NC(C)=C(C(=O)OC)C1c1ccccc1[N+](=O)[O-] [WEHI-0104145, Nifedipine] |  |  |  | inhibition at 20 µM ([1]; Batch Reference=02): 55.3%; inhibition at 20 µM ([1]; Batch Reference=03): 57.3%; inhibition at 10 µM ([2]; Batch Reference=02): 81.1%; inhibition at 10 µM ([2]; Batch Reference=03): 75.7%
13 | CN1CCc2cccc3c2[C@H]1Cc1ccc(O)c(O)c1-3 [WEHI-1214737, Apomorphine hydrochloride hemihydrate] |  |  |  | % Inhibition Pilot ([1]; Batch Reference=01, 20 µM, inhibitor, % Inhibition Pilot): 62.755%; % Inhibition Confirmation ([2]; Batch Reference=01, 10 µM, inhibitor, % Inhibition Confirmation): 72.2885%
14 | CCCN1CCc2cccc3c2[C@H]1Cc1ccc(O)c(O)c1-3 [WEHI-1215034, R(-)-Propylnorapomorphine hydrochloride] | 83% | 84.9% |  | 
15 | CN1CCc2cc(O)cc3c2[C@H]1Cc1ccc(O)c(O)c1-3 [WEHI-1215043, R(-)-2,10,11-Trihydroxyaporphine hybrobromide] | 62.6% | 84.7% |  | 
16 | CCCN1CCc2cc(O)cc3c2[C@H]1Cc1ccc(O)c(O)c1-3 [WEHI-1215052, R(-)-2,10,11-Trihydroxy-N-propylnoraporphine hydrobromide] | 69.8% | 87.2% |  | 
17 | CC#C[C@]1(O)CC[C@H]2[C@@H]3CCC4=CC(=O)CCC4=C3[C@@H](c3ccc(N(C)C)cc3)C[C@@]21C [WEHI-1215337, Mifepristone] | 75.3% | 91.7% |  | inhibition at 20 µM ([1]; Batch Reference=03): 76.6%; inhibition at 10 µM ([2]; Batch Reference=03): 96.5%
18 | C[n+]1cc2c3c(ccc2c2ccc4cc5c(cc4c21)OCO5)OCO3 [WEHI-1215580, Sanguinarine chloride] | 70.3% | 99% |  | 
19 | COCCCOc1ccnc(C[S+]([O-])c2nc3ccccc3[nH]2)c1C (centres unmarked) [rabeprazole, reference compound] |  |  | not active | 

Source: publication PMC7645381, “Development and application of a high-throughput screening assay for identification of small molecule inhibitors of the P. falciparum reticulocyte binding-like homologue 5 protein” (International Journal for Parasitology: Drugs and Drug …, 2020)
